# Assay results reported in patent US12685791B2, “Free PSA antibodies as diagnostics, prognostics and therapeutics for prostate cancer” (Memorial Sloan Kettering Cancer Center, priority 2011, dated 2026).
# Where “and” joins values, the source holds several entries; their conditions need not be identical. Equal values may be shown once.
# What was measured:
# [1] = system: bone remodeling (fractured tibia); assay: Bone fracture model, PET/SPECT of bone remodeling; assay type: in vivo, mice; settings: PET or SPECT
# Procedure: Osseous tumors were established in intact male mice via injection of LNCaP-AR in the tibia of the left hindlimb as follows. Prior to surgery, […] male SCID mice were anesthetized with ketamine, and an incision was be made in the left hind limb. The tibia was punctured using a bone drill, and 1×10^5 cells (22Rv1 or LNCaP-AR) injected into the marrow. The puncture was closed with bone wax, the incision sutured, and animals received a palliative dose of carprofen (5 mg/kg) once daily for three days post surgery. Tumor development was followed with bioluminescence imaging, and confirmed with MRI. The bone fracture model was prepared similar to the osseous tumor model, excluding injection of cells and application of bone wax.
# In FIG. 14c, intact male mice received a fracture in the tibia, and ten days post surgery, bone remodeling was evaluated with ^18F—NaF. A clear region of contrast was identified in the fractured tibia by PET.
# [2] = system: LNCaP-AR xenografts; assay: Ex vivo biodistribution of 89Zr-5A10, castrate male mice bearing LNCaP-AR xenografts treated with vehicle or MDV3100 (Table 13); assay type: in vivo
# [3] = system: fPSA and tPSA; assay: Tumor PSA ELISA, castrate male mice bearing LNCaP-AR tumors treated with vehicle or MDV3100 (Table 14); assay type: in vivo, human; settings: for f/t PSA Ratio / fPSA / fPSA/tProtein: tumor, individual mice, listed as MDV
# Procedure: (§1) Mice were injected with ^89Zr-5A10, and at the indicated time point post injection, were sacrificed for PSA analysis. Tumor tissues were surgically excised. fPSA and total PSA (“tPSA”) were determined with PSA-directed ELISA, and the values were normalized to total protein concentration. fPSA concentrations are reported as average ng/ml(a), total PSA (“tPSA”) concentrations are reported as ng/mL (b), and total protein concentrations are reported as ng/mg (c). ELISAs were conducted as follows for PSA detection in serum and tumor tissues. fPSA and tPSA were measured with a dual-label immunofluorometric assay (DELFIA Prostatus™ PSA Free/Total PSA; Perkin-Elmer Life Sciences) according to manufacturer's recommendations. This assay measured fPSA and complexed PSA (cPSA) in an equimolar fashion^8, and the cross-reactivity of PSA-ACT for fPSA was <0.2%^9. […] For detection, the 1235 automatic immunoassay system from Perkin-Elmer Life Sciences was used. cPSA concentrations were calculated by subtracting fPSA from tPSA.
# As expected, each dose of MDV3100 inhibited AR signaling and fPSA synthesis (Table 14). Table 14 provides data regarding tumor analysis of PSA expression levels via ELISA in castrate male mice bearing LNCaP-AR tumors treated with antiandrogens. Castrate male mice bearing LNCaP-AR xenografts received a daily oral gavage of vehicle (VEH #), 10 mg/kg (MDV10 #), 40 mg/kg (MDV40 #), or 80 mg/kg (MDV80 #). Six days post manipulation, mice were injected with ^89Zr-5A10. Twenty four hours post injection, mice were sacrificed for PSA analysis. Tumor tissues were surgically excised. fPSA and tPSA were determined with PSA-directed ELISA (as above), and in the case of intratumoral PSA, the values were normalized to total protein concentration. ^afPSA concentrations are reported as ng/ml, ^btotal PSA concentrations are reported as ng/mL, ^ctotal protein concentrations are reported as ng/mg. Abbreviations: fPSA, fPSA; tPSA, total PSA.
# [4] = system: LNCaP-AR xenografts; assay: 89Zr-5A10 PET, region-of-interest analysis (SUVmean) of s.c. LNCaP-AR tumors (Table 16); assay type: in vivo, mice
# Procedure: PET imaging experiments were conducted on a microPET Focus 120 scanner (Concorde Microsystems). […] Approximately 5 min prior to recording PET images, mice were anesthetized by inhalation of 1-2% isoflurane (Baxter Healthcare, Deerfield, IL)/oxygen gas mixture and placed on the scanner bed. PET images were recorded at various time-points between 1-120 h post-injection. List-mode data were acquired for between 10 and 30 min. using a T-ray energy window of 350-750 keV, and a coincidence timing window of 6 ns. For all static images, scan time was adjusted to ensure a minimum of 20 million coincident events were recorded. Data were sorted into 2-dimensional histograms by Fourier re-binning, and transverse images were reconstructed by filtered back-projection (FBP) into a 128×128×63 (0.72×0.72×1.3 mm) matrix. The reconstructed spatial resolution for ^89Zr was 1.9 mm full-width half maximum (FWHM) at the center of the field-of-view (FOV). […] An empirically determined system calibration factor (in units of [mCi/mL]/[cps/voxel]) for mice was used to convert voxel count rates to activity concentrations. […] Manually drawn 2-dimensional regions-of-interest (ROIs) or 3-dimensional volumes-of-interest (VOIs) were used to determined the maximum and mean % ID/g (decay corrected to the time of injection) in various tissues. Images were analyzed by using ASIPro VM™ software (Concorde Microsystems).
# [5] = system: fPSA and tPSA; assay: Intratumoral PSA ELISA, castrate male mice bearing LNCaP-AR xenografts, no treatment or testosterone pellet (Table 10); assay type: in vivo, human
# Procedure: as §1
# Table 10 provides intratumoral PSA concentrations in castrate male mice bearing LNCaP-AR xenografts, receiving either no manipulation, or a subcutaneous testosterone pellet. […] Twenty four hours post injection, mice were sacrificed for PSA analysis. Tumor tissues were surgically excised. fPSA and tPSA were determined with PSA-directed ELISA (as above), and in the case of intratumoral PSA, the values were normalized to total protein concentration. ^afPSA concentrations are reported as ng/ml, ^btotal PSA concentrations are reported as ng/mL, ^ctotal protein concentrations are reported as ng/mg. Abbreviations: fPSA, fPSA; tPSA, total PSA.
# [6] = system: fPSA and tPSA; assay: Tumor PSA ELISA, castrate male mice bearing 22Rv1 tumors, no treatment or testosterone pellet (Table 12); assay type: in vivo, human; settings: 22Rv1 tumor, individual mice with s.c. testosterone pellet, 7 d
# Procedure: as §1
# Twenty four hours post-injection, mice were sacrificed for PSA analysis. […]
# [7] = 10 mg/kg daily oral gavage, 10 mg/kg
# [8] = 40 mg/kg daily oral gavage, 40 mg/kg
# [9] = 80 mg/kg daily oral gavage, 80 mg/kg
# [10] = tumor, individual mice with s.c. testosterone pellet, 7 d
compound,measurement,setting,value
[18F-].[Na+] [18FNaF],localization to site of bone repair (fractured tibia),[1],readily localized
O.O.O=P([O-])([O-])CP(=O)([O-])[O-].[99Tc+4] [99mTc-MDP],localization to site of bone repair (fractured tibia),[1],readily localized
CNC(=O)c1ccc(N2C(=S)N(c3ccc(C#N)c(C(F)(F)F)c3)C(=O)C2(C)C)cc1F [MDV3100],tumor-associated 89Zr-5A10,[2]; 40 and 80 mg/kg dose vs vehicle,significantly decreased
same,effect on localization of 89Zr-5A10 to tumor,"[2]; daily oral gavage 7 d, 10, 40 or 80 mg/kg",inhibits
same,AR signaling and fPSA synthesis,"[3]; each dose (10, 40, 80 mg/kg)",inhibited
same,f/t PSA Ratio,[3]; [7],0.73 and 0.56 and 0.60 and 0.69
same,fPSA,[3]; [7],19.12 ng/mL and 48.98 ng/mL and 3.96 ng/mL and 474.40 ng/mL
same,fPSA/tProtein,[3]; [7],3.29 and 7.07 and 0.88 and 51.57
same,f/t PSA Ratio,[3]; [8],0.89 and 0.85 and 0.80
same,fPSA,[3]; [8],71.24 ng/mL and 43.25 ng/mL and 98.26 ng/mL
same,fPSA/tProtein,[3]; [8],11.61 and 6.14 and 15.13
same,f/t PSA Ratio,[3]; [9],0.57 and 0.69 and 0.59
same,fPSA,[3]; [9],5.97 ng/mL and 77.83 ng/mL and 57.31 ng/mL
same,fPSA/tProtein,[3]; [9],1.18 and 10.34 and 9.99
same,tumor-associated 89Zr-5A10 by PET,[4]; 80 mg/kg daily oral gavage vs vehicle,statistical changes
C[C@]12CC[C@H]3[C@@H](CCC4=CC(=O)CC[C@@]43C)[C@@H]1CC[C@@H]2O [testosterone],intratumoral PSA levels,[5]; s.c. testosterone pellet vs no manipulation,increased
same,f/t PSA Ratio,[5]; [10],0.81 and 0.60 and 0.70 and 0.20
same,fPSA,[5]; [10],147.77 ng/mL and 424.31 ng/mL and 384.89 ng/mL and 566.42 ng/mL
same,fPSA/tProtein,[5]; [10],22.69 and 51.56 and 65.44 and 66.60
same,fPSA,[6],31.0 ng/mL and 26.8 ng/mL and 29.8 ng/mL and 32.9 ng/mL
same,fPSA/tProtein,[6],3.60 and 2.84 and 3.44 and 4.19
same,tumor-associated 89Zr-5A10 by PET,[4]; s.c. testosterone pellets,significant increase
